In US11358970B2, “Artemisinin-derived trimers and tetramers and their use thereof” (priority 2017, dated 2022):
Like-named read-outs stand apart in the source and are kept apart here.

Tests used:
[1] = tested on: A549 (human lung carcinoma); assay: MTT cytotoxicity assay, A549 cell line; assay type: cell-based; conditions: 72 hours; for inhibition at 0.1 µM / inhibition at 0.25 µM / inhibition at 0.5 µM / inhibition at 1 µM: Homo sapiens
Procedure: (§1) Artesunate and dihydroartemisinin were purchased from AK Scientific (Union City, Calif.). CellTiter 96® Non-Radioactive Cell Proliferation Assay (MTT) reagent was purchased from Promega (Madison, Wis.). A549 (human lung carcinoma), HeLa (human cervical carcinoma), MOLT4 (human T-cell acute lymphoblastic leukemia) were purchased from American Type Culture Collection (Manassas, Va.) and cultured in Ham's F-12 K media supplemented with 10% FBS, 100 μg/ml of penicillin and 100 μg/ml of streptomycin. The culture was maintained at 37° C. in a humidified atmosphere of 5% CO2 and 95% air.
(§2) Both reference and test compounds were dissolved in DMSO in a 10-concentration and 3-fold serial dilution format. 50 nl stock solution of test compounds or 25 nl of reference compounds were delivered from the source plate to the wells of 384-well cell culture plates. 25 μl of culture medium containing 2,000 corresponding cancer cells were added to the wells. The plates were incubated at 37° C. in a humidified atmosphere of 5% CO2 and 95% air for 72 hours. 4 μl of MTT Dye Solution was added to each well and the plates were incubated at 37° C. in a CO2 incubator for 4 hours. After incubation, the formazan was produced in the cells. 25 μl of Solubilization/Stop Solution was added to each well and the plates were incubated for another 1 hour at 37° C. in a CO2 incubator to dissolve the formazan crystals.
(§3) The absorbance of each sample was measured at 590 nm using Envision 2104 Multilabel Reader (PerkinElmer, Santa Clara, Calif.). The cell viability was determined based on the quantification of the color intensity in each culture well. The inhibitory curves were plotted and the IC50 values were calculated using GraphPad Prism 4 program based on a sigmoidal dose-response equation.

[2] = tested on: HeLa (human cervical carcinoma); assay: MTT cytotoxicity assay, HeLa cell line; assay type: cell-based; conditions: read-out: IC50 HeLa
Procedure: as §1, §2, §3

[3] = tested on: MOLT4 (human T-cell acute lymphoblastic leukemia); assay: MTT cytotoxicity assay, MOLT4 cell line; assay type: cell-based; conditions: read-out: IC50 MOLT4
Procedure: as §1, §2, §3

HepG2 cell line = assay: MTT cytotoxicity assay, HepG2 cell line; assay type: cell-based
Procedure: as §2, §3

cytomegalovirus = conditions: relative to artesunate; cited from earlier work
23 leukemia cell lines = conditions: average over 23 leukemia cell lines, relative to artesunate; cited from earlier work
[4] = Homo sapiens, MOLT-4, MOLT4, 72 hours, MTT
[5] = Homo sapiens, HepG2, MTT, read-out: IC50 HepG2
[6] = HepG2, MTT, read-out: IC50 HepG2

`C[C@H]1[C@H](OC(=O)CCC(=O)OCCN(CCOC(=O)CCC(=O)O[C@@H]2O[C@@H]3O[C@]4(C)CC[C@H]5[C@H](C)CC[C@@H]([C@H]2C)[C@@]35OO4)CCOC(=O)CCC(=O)O[C@@H]2O[C@@H]3O[C@]4(C)CC[C@H]5[C@H](C)CC[C@@H]([C@H]2C)[C@@]35OO4)O[C@@H]2O[C@@]3(C)CC[C@H]4[C@H](C)CC[C@@H]1[C@@]24OO3` [Compound 1] gave an inhibition at 0.1 µM ([1]; 0.1 μM) of 10%, an inhibition at 0.25 µM ([1]; 0.25 μM) of 14% and an inhibition at 0.5 µM ([1]; 0.5 μM) of 20%. The inhibition at 1 µM ([1]; 1.0 μM) was 47%, the IC50 ([2]; Homo sapiens, 72 hours, MTT) was 1720 nM and the IC50 [3, 4] was 318 nM.
For `C[C@H]1[C@H](OC(=O)CCC(=O)OCC(COC(=O)CCC(=O)O[C@@H]2O[C@@H]3O[C@@]4(C)CC[C@H]5[C@H](C)CC[C@@H]([C@H]2C)[C@@]35OO4)(COC(=O)CCC(=O)O[C@@H]2O[C@@H]3O[C@@]4(C)CC[C@H]5[C@H](C)CC[C@@H]([C@H]2C)[C@@]35OO4)NC(=O)C(F)(F)F)O[C@@H]2O[C@@]3(C)CC[C@H]4[C@H](C)CC[C@@H]1[C@@]24OO3` [Compound 12], the IC50 (HepG2 cell line; [5]) was 7800 nM.
Compound `C[C@H]1[C@@H](O)O[C@@H]2O[C@@]3(C)CC[C@H]4[C@H](C)CC[C@@H]1[C@@]24OO3` [Dihydroartemisinin, reference compound] has an inhibition at 0.25 µM ([1]; 0.25 μM) of 5%, an inhibition at 0.5 µM ([1]; 0.5 μM) of 10% and an inhibition at 1 µM ([1]; 1.0 μM) of 20%. It also gave an IC50 ([2]; Homo sapiens, 72 hours, MTT) of 9340 nM and an IC50 [3, 4] of 680 nM.
For `C[C@H]1[C@H](OC(=O)CC(CC(=O)O[C@@H]2O[C@@H]3O[C@]4(C)CC[C@H]5[C@H](C)CC[C@@H]([C@H]2C)[C@@]35OO4)C(=O)O[C@@H]2O[C@@H]3O[C@]4(C)CC[C@H]5[C@H](C)CC[C@@H]([C@H]2C)[C@@]35OO4)O[C@@H]2O[C@@]3(C)CC[C@H]4[C@H](C)CC[C@@H]1[C@@]24OO3` (some centres unmarked) [Compound 14], the IC50 (HepG2 cell line; [6]) was 1300 nM.
For `C[C@@H]1CCC2[C@@H](C)[C@@H](CC(COP(=O)(Oc3ccccc3)Oc3ccccc3)C[C@H]3O[C@@H]4O[C@@]5(C)CCC6[C@H](C)CCC([C@H]3C)[C@]64OO5)O[C@@H]3O[C@@]4(C)CCC1[C@@]23OO4` (some centres unmarked) [ART838], the “fold more potent in inhibiting growth of cytomegalovirus than artesunate” value (cytomegalovirus) is given as 165 fold and the “folds more potent than artesunate in inhibiting 23 leukemia cell lines (average)” value (23 leukemia cell lines) is given as 88 folds.
In the case of `C[C@H]1[C@H](OC(=O)CCC(=O)OCCN(CCO)CCN(CCOC(=O)CCC(=O)O[C@@H]2O[C@@H]3O[C@@]4(C)CC[C@H]5[C@H](C)CC[C@@H]([C@H]2C)[C@@]35OO4)CCOC(=O)CCC(=O)O[C@@H]2O[C@@H]3O[C@@]4(C)CC[C@H]5[C@H](C)CC[C@@H]([C@H]2C)[C@@]35OO4)O[C@@H]2O[C@@]3(C)CC[C@H]4[C@H](C)CC[C@@H]1[C@@]24OO3` [Compound 16], the IC50 ([2]; Homo sapiens, 72 hours, MTT) is reported as 1110 nM and the IC50 [3, 4] is reported as 217 nM.
Compound `C[C@H]1[C@H](OC(=O)CCC(=O)OCC(COC(=O)CCC(=O)O[C@@H]2O[C@@H]3O[C@@]4(C)CC[C@H]5[C@H](C)CC[C@@H]([C@H]2C)[C@@]35OO4)(COC(=O)CCC(=O)O[C@@H]2O[C@@H]3O[C@@]4(C)CC[C@H]5[C@H](C)CC[C@@H]([C@H]2C)[C@@]35OO4)NC(=O)OC(C)(C)C)O[C@@H]2O[C@@]3(C)CC[C@H]4[C@H](C)CC[C@@H]1[C@@]24OO3` [Compound 7] has an inhibition at 0.1 µM ([1]; 0.1 μM) of 12%, an inhibition at 0.25 µM ([1]; 0.25 μM) of 14% and an inhibition at 0.5 µM ([1]; 0.5 μM) of 21%. The inhibition at 1 µM ([1]; 1.0 μM) was 40%, the IC50 ([2]; Homo sapiens, 72 hours, MTT) was 602 nM and the IC50 [3, 4] was 119 nM.
With `CC1CCC2C(C)C(OC(=O)CCC(=O)OCC(COC(=O)CCC(=O)OC3OC4OC5(C)CCC6C(C)CCC(C3C)C46OO5)OC(=O)CCC(=O)OC3OC4OC5(C)CCC6C(C)CCC(C3C)C46OO5)OC3OC4(C)CCC1C32OO4` (centres unmarked) [Compound 3] the IC50 ([2]; 72 hours, MTT) was 630 nM, the IC50 (HepG2 cell line; [6]) was 830 nM and the IC50 ([3]; MOLT4, 72 hours, MTT) was 60 nM.
`C[C@@H]1[C@@H](OC(=O)CCC(=O)NC(COC(=O)CCC(=O)O[C@@H]2O[C@@H]3O[C@@]4(C)CC[C@H]5[C@H](C)CC[C@@H]([C@H]2C)[C@@]35OO4)(COC(=O)CCC(=O)O[C@@H]2O[C@@H]3O[C@@]4(C)CC[C@H]5[C@H](C)CC[C@@H]([C@H]2C)[C@@]35OO4)COC(=O)CCC(=O)O[C@@H]2O[C@@H]3O[C@@]4(C)CC[C@H]5[C@H](C)CC[C@@H]([C@H]2C)[C@@]35OO4)O[C@H]2O[C@@]3(C)CC[C@@H]4[C@@H](C)CC[C@H]1[C@]24OO3` [Compound 13] showed an IC50 ([2]; Homo sapiens, 72 hours, MTT) of 14200 nM and an IC50 [3, 4] of 150 nM.
For `C[C@H]1[C@H](OC(=O)CCC(=O)OCC(COC(=O)CCC(=O)O[C@@H]2O[C@@H]3O[C@@]4(C)CC[C@H]5[C@H](C)CC[C@@H]([C@H]2C)[C@@]35OO4)(COC(=O)CCC(=O)O[C@@H]2O[C@@H]3O[C@@]4(C)CC[C@H]5[C@H](C)CC[C@@H]([C@H]2C)[C@@]35OO4)NC=O)O[C@@H]2O[C@@]3(C)CC[C@H]4[C@H](C)CC[C@@H]1[C@@]24OO3` [Compound 11], the IC50 (HepG2 cell line; [5]) was 550 nM.
Compound `CC(=O)NC(COC(=O)CCC(=O)O[C@@H]1O[C@@H]2O[C@@]3(C)CC[C@H]4[C@H](C)CC[C@@H]([C@H]1C)[C@@]24OO3)(COC(=O)CCC(=O)O[C@@H]1O[C@@H]2O[C@@]3(C)CC[C@H]4[C@H](C)CC[C@@H]([C@H]1C)[C@@]24OO3)COC(=O)CCC(=O)O[C@@H]1O[C@@H]2O[C@@]3(C)CC[C@H]4[C@H](C)CC[C@@H]([C@H]1C)[C@@]24OO3` [Compound 9] has an IC50 ([2]; Homo sapiens, 72 hours, MTT) of 360 nM, an IC50 (HepG2 cell line; [5]) of 310 nM and an IC50 [3, 4] of 66 nM.
For `C[C@@H]1CC[C@H]2[C@@H](C)C(OC(=O)CN(CC(=O)OC3O[C@@H]4O[C@@]5(C)CC[C@H]6[C@H](C)CC[C@@H]([C@H]3C)[C@@]46OO5)CC(=O)OC3O[C@@H]4O[C@@]5(C)CC[C@H]6[C@H](C)CC[C@@H]([C@H]3C)[C@@]46OO5)O[C@@H]3O[C@@]4(C)CC[C@@H]1[C@]32OO4` (some centres unmarked) [Compound 2], the “Inhibition (%)” value ([1]; 0.1 μM) was 12%, the “Inhibition (%)” value ([1]; 0.25 μM) was 20% and the “Inhibition (%)” value ([1]; 0.5 μM) was 21%. The “Inhibition (%)” value ([1]; 1.0 μM) was 40%, the IC50 ([2]; 72 hours, MTT) was 1140 nM and the IC50 ([3]; MOLT4, 72 hours, MTT) was 320 nM.
In the case of `C[C@H]1[C@H](OC(=O)CCC(=O)O)O[C@@H]2O[C@@]3(C)CC[C@H]4[C@H](C)CC[C@@H]1[C@@]24OO3` [Artesunate, reference compound], the IC50 ([2]; Homo sapiens, 72 h) is reported as 9570 nM, the IC50 (HepG2 cell line; Homo sapiens, HepG2, read-out: IC50 HepG2) is reported as 11200 nM and the IC50 ([3]; Homo sapiens, MOLT-4, 72 h) is reported as 1010 nM.
`C[C@H]1[C@H](OC(=O)CCC(=O)OCCN(CCOC(=O)CCC(=O)O[C@@H]2O[C@@H]3O[C@@]4(C)CC[C@H]5[C@H](C)CC[C@@H]([C@H]2C)[C@@]35OO4)CCN(CCOC(=O)CCC(=O)O[C@@H]2O[C@@H]3O[C@@]4(C)CC[C@H]5[C@H](C)CC[C@@H]([C@H]2C)[C@@]35OO4)CCOC(=O)CCC(=O)O[C@@H]2O[C@@H]3O[C@@]4(C)CC[C@H]5[C@H](C)CC[C@@H]([C@H]2C)[C@@]35OO4)O[C@@H]2O[C@@]3(C)CC[C@H]4[C@H](C)CC[C@@H]1[C@@]24OO3` [Compound 15] showed an IC50 ([2]; Homo sapiens, 72 hours, MTT) of 35200 nM and an IC50 [3, 4] of 275 nM.
With `C[C@H]1[C@H](OC(=O)CCC(=O)NC(COC(=O)CCC(=O)O[C@@H]2O[C@@H]3O[C@@]4(C)CC[C@H]5[C@H](C)CC[C@@H]([C@H]2C)[C@@]35OO4)COC(=O)CCC(=O)O[C@@H]2O[C@@H]3O[C@@]4(C)CC[C@H]5[C@H](C)CC[C@@H]([C@H]2C)[C@@]35OO4)O[C@@H]2O[C@@]3(C)CC[C@H]4[C@H](C)CC[C@@H]1[C@@]24OO3` [Compound 4] the IC50 (HepG2 cell line; [5]) was 1790 nM.
